Measurements: article PMC8151276, “An Integrated Approach toward NanoBRET Tracers for Analysis of GPCR Ligand Engagement” (Molecules, 2021)

Assays:
Type in all cases: binding
[1] = target: T1, CCKAR (Homo sapiens, UniProt P32238); assay: NanoBRET screen HiBiT-CCKAR in HEK293
T1 construct: purchased Promega (in-house HiBiT-GPCR construct library, NanoBRET)
T1 sequence (P32238 1-428): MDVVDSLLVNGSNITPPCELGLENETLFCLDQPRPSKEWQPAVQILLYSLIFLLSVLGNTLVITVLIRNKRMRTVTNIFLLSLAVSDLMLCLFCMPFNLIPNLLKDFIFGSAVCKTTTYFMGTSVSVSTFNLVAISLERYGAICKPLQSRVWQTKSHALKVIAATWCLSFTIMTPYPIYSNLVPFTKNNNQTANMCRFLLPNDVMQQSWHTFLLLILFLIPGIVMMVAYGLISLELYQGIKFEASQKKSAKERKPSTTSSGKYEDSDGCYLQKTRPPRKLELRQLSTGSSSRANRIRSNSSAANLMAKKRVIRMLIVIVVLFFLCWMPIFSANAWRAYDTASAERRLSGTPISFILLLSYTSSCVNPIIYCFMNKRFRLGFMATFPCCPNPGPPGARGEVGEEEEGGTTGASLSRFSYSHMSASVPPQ
Procedure: (§1) Each tracer candidate was screened across the entire library of HiBiT-GPCR constructs using NanoBRET as the detection modality. As depicted in Figure 4A, the specificity of interactions was evaluated through decrease in BRET due to competitive displacement of a bound tracer by excess parental compound. Each tracer was analyzed for binding to each HiBiT-GPCR fusion in the absence and in the presence of competing parental compound. Briefly, HEK293 cells were transfected with HiBiT-GPCR constructs diluted into promoterless DNA to reduce expression and maximize translocation to the cell surface. Each tracer candidate was then screened at concentrations of 1 μM and 0.1 μM across cells expressing these fusions. Cells were treated for 1.5 h with tracer either alone or in the presence of 20 μM competing parental compound (i.e., control). BRET was measured upon addition of purified LgBiT and subsequent complementation with HiBiT genetically fused to a GPCR. The specificity of interactions was assessed through a decrease in BRET signal due to competitive displacement of the bound tracer. To further gauge the robustness of these interactions, the fold response over the control (i.e., BRETtracer/BRETcontrol) was calculated. We chose a 1.5-fold response, which translates to ≥7-fold signal over noise as the minimal threshold required to score an interaction as positive. […]. Below we highlight the screening results obtained for our exemplary fluorescent tracers based on Clozapine, Amitriptyline and AZD1283.
(§2) HiBiT-GPCR DNA constructs were diluted in 10 mM Tris pH 8 to a final concentration of 0.01 μg/μL, arrayed in 96-well plates and stored at −20 °C. For transfection, HEK293 cells were suspended in Opti-MEM (without phenol red) supplemented with 2% fetal bovine serum (Seradigm) and 100 units/mL penicillin–streptomycin (Gibco) at a final concentration of 220,000 cells/mL and dispensed into white 96-well plates at 90 μL/well. Subsequent transfections and screens were carried using an Agilent Bravo Automated Liquid Handling Platform. First, the 96-well HiBiT DNA arrays were diluted 25-fold in Opti-MEM (without serum or phenol red) to a final concentration of 0.0004 μg/μL and 20 μL of the diluted DNAs were transferred into new 96-well plates. Next, promoterless carrier DNA (1 μg/μL) was diluted 25-fold (0.04 μg/μL) and then dispensed into the diluted arrays at 20 μL/well. Following brief mixing, Viafect transfection reagent (Promega) diluted 16-fold into Opti-MEM was dispensed into the plates at 40 μL/well. After mixing by pipetting, plates were incubated for 10 min on the pipetting station deck. The DNA-transfection reagent complexes were then added to plates containing cells. To facilitate the screen, 10 μL of DNA-transfection reagent complexes were added in duplicates to the top 4 and bottom 4 rows, resulting in two identical 48-well arrays per plate. Plates with transfected cells were incubated for 18–20 h at 37 °C/5% CO2. A screen of each tracer across the entire library using two different concentrations requires duplicate plates of transfected cells. Depending on the number of tracers being screened, transfections can be scaled up using the same ratios. The next day, for each tracer, four 20× screening solutions in tracer dilution buffer (Promega) were prepared: two duplicates at final concentration of 20 μM and two duplicates at a final concentration of 2 μM. A competing unmodified compound was added to one of each duplicate at a final concentration of 400 μM. The four resulting solutions were diluted 4-fold in Opti-MEM without serum or phenol red to generate 5× solutions (5 µM and 0.5 µM tracer +/− 100 μM competing compound). To screen the library, a BioTek MultiFlo FX liquid dispenser was used to dispense 22.5 µL of tracer solution to the top 4 rows and 22.5 µL tracer + competing compound solution to the 4 bottom rows. Plates were briefly mixed on an orbital shaker and incubated for 1.5 h at room temperature. […]

[2] = target: T2, PTGIR (Homo sapiens, UniProt P43119); assay: NanoBRET screen HiBiT-PTGIR in HEK293
T2 construct: purchased Promega (in-house HiBiT-GPCR construct library, NanoBRET)
T2 sequence (P43119 whole entry): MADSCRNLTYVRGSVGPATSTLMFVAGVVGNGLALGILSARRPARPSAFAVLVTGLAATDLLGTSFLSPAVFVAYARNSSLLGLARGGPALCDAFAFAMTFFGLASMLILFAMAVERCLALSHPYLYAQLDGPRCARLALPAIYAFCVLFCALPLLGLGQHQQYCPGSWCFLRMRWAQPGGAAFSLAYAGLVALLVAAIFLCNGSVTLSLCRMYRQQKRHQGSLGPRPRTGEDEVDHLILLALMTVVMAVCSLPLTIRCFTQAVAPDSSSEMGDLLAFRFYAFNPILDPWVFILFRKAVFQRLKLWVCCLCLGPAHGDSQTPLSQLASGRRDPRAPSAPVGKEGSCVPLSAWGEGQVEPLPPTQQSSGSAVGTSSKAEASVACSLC
Procedure: as §1, §2

[3] = target: T3, HTR1E (Homo sapiens, UniProt P28566); assay: NanoBRET screen HiBiT-HTR1E in HEK293
T3 construct: purchased Promega (in-house HiBiT-GPCR construct library, NanoBRET)
T3 sequence (P28566 whole entry): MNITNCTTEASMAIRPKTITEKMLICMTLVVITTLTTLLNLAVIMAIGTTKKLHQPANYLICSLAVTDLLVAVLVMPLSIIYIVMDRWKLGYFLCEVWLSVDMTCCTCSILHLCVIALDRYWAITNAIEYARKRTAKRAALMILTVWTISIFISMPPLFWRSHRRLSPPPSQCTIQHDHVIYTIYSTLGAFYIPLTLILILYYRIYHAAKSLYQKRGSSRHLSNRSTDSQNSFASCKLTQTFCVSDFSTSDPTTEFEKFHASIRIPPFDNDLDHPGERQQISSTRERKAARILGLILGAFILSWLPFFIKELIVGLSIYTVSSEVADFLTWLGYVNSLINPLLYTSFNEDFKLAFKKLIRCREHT
Procedure: as §1, §2

Row | Compound | NanoBRET Fold Response ([1]; CCKAR, tracer 0.1μM) | NanoBRET Fold Response ([1]; CCKAR, tracer 1μM) | NanoBRET Fold Response ([2]; PTGIR, tracer 0.1μM) | NanoBRET Fold Response ([2]; PTGIR, tracer 1μM) | NanoBRET Fold Response ([3]; HTR1E, tracer 0.1μM) | NanoBRET Fold Response ([3]; HTR1E, tracer 1μM) | NanoBRET Fold Response ([1]; CCKAR, 0.1μM tracer) | NanoBRET Fold Response ([1]; CCKAR, 1μM tracer) | NanoBRET Fold Response ([2]; PTGIR, 0.1μM tracer) | NanoBRET Fold Response ([2]; PTGIR, 1μM tracer) | NanoBRET Fold Response ([3]; HTR1E, 0.1μM tracer) | NanoBRET Fold Response ([3]; HTR1E, 1μM tracer) | other results
1 | O=C(CCc1ccc2n1[B-](F)(F)[N+]1=C(c3ccc[nH]3)C=CC1=C2)NCCOCCOCCNC(=O)OCCOCCN1CCN(C2=Nc3ccccc3Sc3ccccc32)CC1 [Quetiapine-a-2-NB590] | 1.04 | 0.94 | 1.03 | 0.94 | 0.96 | 0.99 | – | – | – | – | – | – | –
2 | Cc1cc2c(s1)Nc1ccccc1N=C2N1CCN(CCCNC(=O)CCOCCOCCOCCOCCNC(=O)CCc2ccc3n2[B-](F)(F)[N+]2=C(c4ccc[nH]4)C=CC2=C3)CC1 [Olanzapine-a-2-NB590] | 1.02 | 1.04 | 0.99 | 0.98 | 0.99 | 1.09 | – | – | – | – | – | – | –
3 | CN1CCN(C2=Nc3cc(Cl)ccc3Nc3ccc(CNC(=O)CCOCCOCCOCCOCCNC(=O)CCc4ccc5n4[B-](F)(F)[N+]4=C(c6ccc[nH]6)C=CC4=C5)cc32)CC1 [Clozapine-b-2-NB590] | – | – | – | – | – | – | 1.02 | 0.88 | 0.98 | 1.00 | 0.99 | 0.97 | –
4 | COc1ccc2c(n1)c(CCNC(C)=O)cn2CCNC(=O)CCc1ccc2n1[B-](F)(F)[N+]1=C(c3ccc[nH]3)C=CC1=C2 [Azamelatonin-1-NB590] | – | – | – | – | – | – | – | – | – | – | – | – | NanoBRET Fold Response ([1]; 0.1μM tracer): 1.21; NanoBRET Fold Response ([1]; 1μM tracer): 0.96; NanoBRET Fold Response ([2]; 0.1μM tracer): 0.94; NanoBRET Fold Response ([2]; 1μM tracer): 1.06; NanoBRET Fold Response ([3]; 0.1μM tracer): 0.99; NanoBRET Fold Response ([3]; 1μM tracer): 0.99
5 | O=C(CCc1ccc2n1[B-](F)(F)[N+]1=C(c3ccc[nH]3)C=CC1=C2)NCc1ccc(C(=O)NCCOCCOCCNCC(O)COc2cccc3ccccc23)cc1 (stereo not drawn) [Propranolol-3-NB590] | – | – | – | – | – | – | – | – | – | – | – | – | NanoBRET Fold Response ([1]; CCKAR, 0.1μM): 0.99; NanoBRET Fold Response ([1]; CCKAR, 1μM): 0.98; NanoBRET Fold Response ([2]; PTGIR, 0.1μM): 1.05; NanoBRET Fold Response ([2]; PTGIR, 1μM): 0.97; NanoBRET Fold Response ([3]; HTR1E, 0.1μM): 1.00; NanoBRET Fold Response ([3]; HTR1E, 1μM): 0.98
6 | O=C(CCOCCOCCOCCOCCNC(=O)CCc1ccc2n1[B-](F)(F)[N+]1=C(c3ccc[nH]3)C=CC1=C2)NCCCN1CCN(C2=Nc3cc(Cl)ccc3Nc3ccccc32)CC1 [Clozapine-a-2-NB590] | – | – | – | – | – | – | 1.01 | 0.85 | 1.04 | 0.98 | 1.01 | 0.96 | –
